The text below walks through data of patent US20260049077A1, “Neurotrophic Receptor Tyrosine Kinase (NTRK) Inhibitors and Methods Using Same” (Baylor College of Medicine, priority 2022, published 2026).

The target in data set [1] is T1, NTRK2 (Homo sapiens (Human), UniProt Q16620). In words: NTRK2 inhibition (IC50). It counts as biochemical.
Data set [2] has as its target T1, NTRK2. In words: NTRK2 apparent inhibition constant (Ki app).
Data set [3] deals with T1, NTRK2. In words: Promega NTRK2 NanoBRET live-cell target engagement. Format: cell-based. The note with it: live cells. The source says:
FIGS. 6A-6B show the live-cell engagement (FIG. 6A) concept and an NTRK2 example (FIG. 6B). FIG. 6A: Depiction of Promega's NanoBRET target engagement system as per their website. The system involves cell-based competitive displacement of a fluorescent NanoBRET tracer bound reversibly to a NanoLuc fusion protein. Test compounds displace the tracer dependent on their affinity for the target and […] the NanoBRET signal. FIG. 6B: Example of the use of Promega's NTRK2 NanoBRET cell-based system. Each NTRK2 compound (Cpd) was assayed in kinase assays and in cells. Multiple NTRK2 compounds enter the cell and are potent nanomolar inhibitors in these assays (% normalized to no Cpd).
As described elsewhere herein, hit compounds, including but not limited to CDD-2262, and its smaller analog, CDD-2330, were synthesized off-DNA and evaluated for NTRK2 activity.
(Bioluminescence resonance energy transfer reports proximity on the nanometre scale.)

For a further data set, the target named is NTRK1 (Homo sapiens (Human), UniProt P04629). In words: NTRK1 inhibition (IC50). The note with it: read-out: NTRK1 IC50.
The nature of data set [4]: Metabolic stability in mouse liver microsomes (MLM). A general note: Microsomes from liver hold many membrane-bound enzymes, among them those of drug oxidation.
A short description of data set [5]: Metabolic stability in human liver microsomes (HLM).
The test system of a further data set is human kinome. The data set can be described thus: KINOMEscan kinome-wide binding profiling. As to conditions: 1 μM. From the text:
(§1) FIG. 7B: Using the ThermoFisher Z'-LYTE™ screening assay, kinase specificity for the NTRK subfamily was observed.
(§2) To broadly assess the kinome-wide selectivity of CDD-2330, a KINOMEscan profiling platform was employed (FIG. 7A).

A further data set has as its target NTRKs. In words: ThermoFisher Z'-LYTE kinase assay, NTRKs. The note with it: Z'-LYTE dose response; range over NTRKs. It counts as biochemical.
Source text: as §1, §2

In another data set the target is MAP3K19 (Homo sapiens (Human), UniProt Q56UN5). In words: ThermoFisher Z'-LYTE kinase assay, MAP3K19. It counts as biochemical.
A short description of data set [6]: Metabolic stability in mouse and human liver microsomes. Format: in vitro ADME. As to conditions: mouse and human liver microsomes in vitro.
A short description of data set [7]: Mouse brain and testis distribution. It counts as in vivo. As to conditions: ip, mice, intraperitoneal. The procedure:
FIGS. 9A-9B show mouse brain (FIG. 9A) and testis (FIG. 9B) distribution of CDD-2330. Mice (n=3 per timepoint) were treated intraperitoneally with CDD-2330 and brain, testis, and blood samples were collected. Samples were processed and analyzed by LC-MS.

Data set [8] in a line: Pharmacokinetics of orally administered CDD-2330 in mice. The note with it: oral 50 mg/kg. It counts as in vivo, mouse. The procedure: CDD-2330 was dissolved in 10% DMSO+0.5% methyl cellulose at 5 mg/mL. CDD-2330 was orally delivered at 50 mg/kg to mice (n=4). Blood samples were collected at 0, 0.25, 0.5, 1, 2, 4, 6, 8, and 24 h. Samples were analyzed by LC-MS, and the concentration of CDD-2330 was quantified with a standard curve (range: 0-10 μM). CDD-3031 was administered by oral gavage at a dose of 50 mg/kg. Blood samples were collected at […], 0.167, 0.25, 0.5, 1, 2, 4, 6, 8, and 24 h.

Data set [9] in a line: Plasma ALT and AST in mice after a high dose (50 mg/kg). Format: in vivo, mouse.
The target in another data set is NTRK3 (Homo sapiens (Human), UniProt Q16288). The data set can be described thus: NTRK3 inhibition (IC50). The note with it: read-out: NTRK3 IC50.
Data set [10] is described as follows: Brain uptake in mice 24 hours post-administration. It counts as in vivo, mouse. The note with it: mouse, brain, 24 h, read-out: Brain Concentration at 24 h (ng/mg).
The test system of the next data set is endometriotic lesions. In words: Endometriosis mouse model, lesion efficacy. Format: in vivo. As to conditions: for number, volume and mass of lesions / endometriotic lesion growth: 10 mg/kg; for number, volume and mass of lesions: compared to vehicle control; for endometriotic lesion growth: excised lesions. The procedure:
FIGS. 17A-17F depict the robust efficacy of the inhibitory compounds of the present disclosure as NTRK2 inhibitors for inhibition of endometriotic lesion growth in mice utilizing CDD-3132 as an example. FIG. 17A provides a schematic overview of the experiment performed. FIGS. 17B-17C provide photographs showing excised lesions with administration of a control (FIG. 17B) or CDD-3132 (10 mg/kg/day) (FIG. 17C).
(§3) In one aspect, the present disclosure provides exemplary data relating to the administration of NTRK2 inhibitors in a mouse model of endometriosis (FIG. 14). In certain embodiments, the recipient mouse is administered the NTRK2 inhibitor and/or controls on day 14 after intraperitoneal injection of endometrium of the donor mouse. In certain embodiments, the recipient mouse is sacrificed and quantitatively assessed on day 28.

Data set [11] can be described thus: Endometriosis mouse model, liver and kidney toxicity (organ weight, ALT, AST). It counts as in vivo. The arrangement: ALT (Mean ± SD) / AST (Mean ± SD): unit not given here. As to conditions: for ALT (Mean ± SD) / AST (Mean ± SD): i.p. dose of 10 mg/kg/day for 14 days. Here is the method: as §3
For data set [12] the following is noted: in vivo; cited from earlier work.
Another data set concerns FLT3-ITD. As to conditions: cited from earlier work.
The conditions of data set [13]: at 4 h; cited from earlier work.
[14] abbreviates: plasma, 48 h after oral 50 mg/kg CDD-2330, individual mice.
[15] abbreviates: group average, CDD-2737 at 10 mg/kg/day for 14 days, n-butyrate 100 mM.
[16] abbreviates: individual mice, CDD-2737 at 10 mg/kg/day for 14 days, n-butyrate 100 mM.

Where “and” joins values, the source holds several entries; their conditions need not be identical. Equal values may be shown once. Entries after “also recorded” stand apart in the source; their conditions may differ. Read-outs that look alike come from different tables or passages of the source.

Chain of NTRK1 (P04629 33-796): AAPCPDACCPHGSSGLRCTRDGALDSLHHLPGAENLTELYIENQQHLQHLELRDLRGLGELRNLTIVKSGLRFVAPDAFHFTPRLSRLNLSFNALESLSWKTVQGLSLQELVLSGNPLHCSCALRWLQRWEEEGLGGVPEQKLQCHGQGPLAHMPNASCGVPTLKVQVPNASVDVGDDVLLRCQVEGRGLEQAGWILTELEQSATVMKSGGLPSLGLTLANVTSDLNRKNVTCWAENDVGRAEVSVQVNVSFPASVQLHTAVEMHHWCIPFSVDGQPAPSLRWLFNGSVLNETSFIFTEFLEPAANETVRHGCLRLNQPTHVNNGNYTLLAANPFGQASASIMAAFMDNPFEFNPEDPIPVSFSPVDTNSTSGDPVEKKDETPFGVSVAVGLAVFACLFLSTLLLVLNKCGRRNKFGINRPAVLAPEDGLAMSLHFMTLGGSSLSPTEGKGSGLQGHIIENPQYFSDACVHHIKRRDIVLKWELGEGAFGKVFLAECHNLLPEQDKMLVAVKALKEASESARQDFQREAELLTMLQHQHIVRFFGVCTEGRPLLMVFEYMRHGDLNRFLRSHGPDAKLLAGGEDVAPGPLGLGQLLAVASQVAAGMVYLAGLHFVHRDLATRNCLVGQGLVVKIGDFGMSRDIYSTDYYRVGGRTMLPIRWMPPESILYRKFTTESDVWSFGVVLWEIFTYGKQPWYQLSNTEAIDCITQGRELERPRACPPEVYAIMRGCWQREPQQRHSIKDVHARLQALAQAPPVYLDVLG
Chain of NTRK3 (Q16288 32-839): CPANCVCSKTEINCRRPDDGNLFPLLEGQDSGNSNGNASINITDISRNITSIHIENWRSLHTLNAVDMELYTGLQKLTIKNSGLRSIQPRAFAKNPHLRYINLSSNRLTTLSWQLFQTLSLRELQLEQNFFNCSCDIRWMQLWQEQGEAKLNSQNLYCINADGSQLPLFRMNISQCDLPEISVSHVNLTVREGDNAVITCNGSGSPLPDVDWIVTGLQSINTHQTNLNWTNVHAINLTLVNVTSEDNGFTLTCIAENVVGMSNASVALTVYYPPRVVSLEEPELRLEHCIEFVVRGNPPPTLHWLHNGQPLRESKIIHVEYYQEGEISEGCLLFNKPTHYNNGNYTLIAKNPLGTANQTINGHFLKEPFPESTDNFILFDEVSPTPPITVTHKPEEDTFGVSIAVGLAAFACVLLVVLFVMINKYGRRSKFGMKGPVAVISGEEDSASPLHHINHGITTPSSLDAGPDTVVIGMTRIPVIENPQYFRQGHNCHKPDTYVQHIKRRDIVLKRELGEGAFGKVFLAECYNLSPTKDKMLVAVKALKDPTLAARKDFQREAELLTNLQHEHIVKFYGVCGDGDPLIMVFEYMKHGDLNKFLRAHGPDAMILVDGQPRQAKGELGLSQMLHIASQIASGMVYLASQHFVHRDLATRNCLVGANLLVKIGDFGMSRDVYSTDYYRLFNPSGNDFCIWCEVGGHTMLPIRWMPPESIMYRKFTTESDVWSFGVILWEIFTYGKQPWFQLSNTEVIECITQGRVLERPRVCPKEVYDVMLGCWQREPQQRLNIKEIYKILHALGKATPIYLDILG
T1 sequence (Q16620 32-822): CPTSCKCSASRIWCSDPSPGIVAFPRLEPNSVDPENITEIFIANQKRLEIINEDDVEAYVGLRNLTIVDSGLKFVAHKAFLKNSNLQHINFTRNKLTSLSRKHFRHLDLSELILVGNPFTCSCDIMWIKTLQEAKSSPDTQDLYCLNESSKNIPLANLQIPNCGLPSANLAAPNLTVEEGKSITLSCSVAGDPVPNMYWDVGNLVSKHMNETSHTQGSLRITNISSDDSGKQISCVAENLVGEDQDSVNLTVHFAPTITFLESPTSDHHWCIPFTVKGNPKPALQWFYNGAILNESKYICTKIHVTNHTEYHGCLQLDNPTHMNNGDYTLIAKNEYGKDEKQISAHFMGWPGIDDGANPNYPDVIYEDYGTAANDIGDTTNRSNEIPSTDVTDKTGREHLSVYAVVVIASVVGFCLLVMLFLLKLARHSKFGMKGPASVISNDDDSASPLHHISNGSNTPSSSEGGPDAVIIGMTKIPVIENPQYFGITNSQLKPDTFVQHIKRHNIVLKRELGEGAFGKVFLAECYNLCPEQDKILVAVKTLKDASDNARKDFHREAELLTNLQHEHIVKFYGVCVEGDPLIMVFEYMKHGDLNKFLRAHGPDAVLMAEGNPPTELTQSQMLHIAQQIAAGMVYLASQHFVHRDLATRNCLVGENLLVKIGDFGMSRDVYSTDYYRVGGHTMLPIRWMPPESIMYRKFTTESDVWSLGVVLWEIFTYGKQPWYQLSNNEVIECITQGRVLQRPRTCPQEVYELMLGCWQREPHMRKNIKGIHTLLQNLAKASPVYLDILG
Chain of MAP3K19 (Q56UN5 whole entry): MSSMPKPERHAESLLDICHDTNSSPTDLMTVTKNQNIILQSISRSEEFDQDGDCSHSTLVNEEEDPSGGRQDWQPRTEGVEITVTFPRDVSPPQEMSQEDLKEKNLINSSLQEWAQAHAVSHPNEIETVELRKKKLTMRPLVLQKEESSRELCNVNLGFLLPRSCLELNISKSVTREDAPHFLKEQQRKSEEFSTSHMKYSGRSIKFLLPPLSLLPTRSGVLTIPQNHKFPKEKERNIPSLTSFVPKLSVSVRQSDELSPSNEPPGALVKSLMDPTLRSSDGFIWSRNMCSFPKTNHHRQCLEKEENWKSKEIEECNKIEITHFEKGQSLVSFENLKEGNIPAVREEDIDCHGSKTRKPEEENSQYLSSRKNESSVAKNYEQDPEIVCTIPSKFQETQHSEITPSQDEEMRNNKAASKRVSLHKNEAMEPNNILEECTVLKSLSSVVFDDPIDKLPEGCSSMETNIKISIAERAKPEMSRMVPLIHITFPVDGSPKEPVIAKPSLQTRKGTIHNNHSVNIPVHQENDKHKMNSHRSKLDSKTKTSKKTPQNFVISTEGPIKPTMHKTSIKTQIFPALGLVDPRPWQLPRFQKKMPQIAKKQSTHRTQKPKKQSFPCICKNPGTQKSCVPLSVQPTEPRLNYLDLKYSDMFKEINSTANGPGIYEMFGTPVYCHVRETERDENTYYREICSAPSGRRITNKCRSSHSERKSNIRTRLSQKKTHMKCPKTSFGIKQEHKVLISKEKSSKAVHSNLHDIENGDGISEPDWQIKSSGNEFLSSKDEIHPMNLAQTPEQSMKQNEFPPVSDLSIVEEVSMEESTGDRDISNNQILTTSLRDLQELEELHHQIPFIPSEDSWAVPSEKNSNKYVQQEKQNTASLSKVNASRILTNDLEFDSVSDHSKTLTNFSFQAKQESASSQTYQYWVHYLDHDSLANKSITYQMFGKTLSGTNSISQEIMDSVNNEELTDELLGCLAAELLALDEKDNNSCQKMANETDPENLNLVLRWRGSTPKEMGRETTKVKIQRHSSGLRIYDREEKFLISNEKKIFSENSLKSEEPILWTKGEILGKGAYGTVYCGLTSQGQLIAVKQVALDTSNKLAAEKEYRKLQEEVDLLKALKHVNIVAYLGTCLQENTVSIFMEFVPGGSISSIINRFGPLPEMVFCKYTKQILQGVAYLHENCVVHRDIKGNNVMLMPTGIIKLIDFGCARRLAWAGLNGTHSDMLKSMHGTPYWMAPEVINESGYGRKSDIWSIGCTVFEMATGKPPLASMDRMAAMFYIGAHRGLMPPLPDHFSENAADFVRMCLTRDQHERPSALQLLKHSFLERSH

As a reminder, the IC50 is the concentration that gives 50% inhibition. As for `CCOc1ccc(CC(=O)N(Cc2ccn3nccc3c2)[C@H](C)c2ccccc2)cc1` [CDD-2222, (R)-2-(4-ethoxyphenyl)-N-(1-phenylethyl)-N-(pyrazolo[1,5-a]pyridin-5-ylmethyl)acetamide], at NTRK2 [1], the 50% inhibitory concentration (IC50) was 43 nM. Also, the Ki at NTRK2 [2] worked out at 34 ± 10 nM.

A word on the half-life: it is how long it takes for the measured level to halve. `CC(C)N(Cc1ccn2nccc2c1)C(=O)Nc1ccc(OC(F)(F)F)cc1` [CDD-2299, 1-isopropyl-1-(pyrazolo[1,5-a]pyridin-5-ylmethyl)-3-(4-(trifluoromethoxy)phenyl)urea]: the IC50 is 3.7 nM against NTRK2 [1] and 31 nM on NTRK1. At NTRK2 [3], the “cell penetration and effect in NanoBRET assays” value (from here on “cell penetration and effect”) is listed as “able to penetrate cell membranes to induce an effect”. Further, the half-life was 0.337 h in data set [4] and 0.718 h in [5].

Consider `CC(C)N(Cc1ccn2ncc(C(=O)O)c2c1)C(=O)Nc1ccc(OC(F)(F)F)cc1` [CDD-2330, 5-((1-isopropyl-3-(4-(trifluoromethoxy)phenyl)ureido)methyl)pyrazolo[1,5-a]pyridine-3-carboxylic acid], for which the IC50 is 3.5 nM against NTRK2 [1]; 1.2 to 3.8 nM against NTRKs; 401 nM against MAP3K19 (Z'-LYTE dose response); 3.8 nM at NTRK1; 1.2 nM on NTRK3. For the same molecule, at NTRK2 [3], the “cell penetration and effect” value is “able to penetrate cell membranes to induce an effect”. Further, the “kinome-wide selectivity (KINOMEscan)” value in the data set with human kinome was “highly specific for NTRK1, NTRK2, and NTRK3; also recorded: high specificity for NTRKs, with MAP3K19 as the only possible off-target”. Moreover, at MAP3K19 (NTRKs vs MAP3K19, Z'-LYTE), the “selectivity over MAP3K19” value is given as more than 100 fold. Moreover, the figures for the half-life in data set [6], in [4] and in [5] were more than 25 h, 27.2 h and 25.6 h, respectively. For the same molecule, the Kp at 4 h in data set [7] (brain, read-out: Brain:Plasma) amounted to 0.31; in data set [7] (testis, read-out: Testis:Plasma), 0.31. Moreover, in [8], the “blood level after oral administration” value is listed as “rapid disappearance in the blood”. Besides, the “potential liver and other tissue toxicity” value in [9] (high dose, 50 mg/kg) is listed as “minimal effects”. Moreover, the ALT in data set [9] (setting [14]) was 13.97 U/L and 26.17 U/L and 13.44 U/L and 18.74 U/L. The AST in [9] (setting [14]) was 19.45 U/L and 18.92 U/L and 26.17 U/L and 13.26 U/L.

As for `CC(C)N(Cc1ccn2ncc(C(N)=O)c2c1)C(=O)Nc1ccc(OC(F)(F)F)cc1` [CDD-2737, 5-((1-isopropyl-3-(4-(trifluoromethoxy)phenyl)ureido)methyl)pyrazolo[1,5-a]pyridine-3-carboxamide], the IC50 against NTRK2 [1] is 2.3 nM; on NTRK1, 6.1 nM; at NTRK3, 3.1 nM. Also, the “cell penetration and effect” value at NTRK2 [3] is reported as “able to penetrate cell membranes to induce an effect”. In addition, in data set [10], the concentration at 24 h was found to be 40 ng/g. In the data set with endometriotic lesions (endometriosis mouse model, compared to controls), the “number and size of lesions” value is “decreases the number of lesions and the size of lesions; also recorded: decreased number of lesions and lesions of diminished size”. Also, the “gross and serum effects on the liver and kidney” value in data set [11] (endometriosis mouse model) is listed as “no gross or serum effects; also recorded: no gross effects”. In addition, in data set [11] (setting [15]), the “ALT (U/L), Average” value is given as 15.2 U/L. Besides, the “AST (U/L), Average” value in data set [11] (setting [15]) came to 31.3 U/L. Besides, the “ALT (U/L)” value in data set [11] (setting [16]) was 13.79 U/L and 13.61 U/L and 10.25 U/L and 23.16 U/L. Moreover, the “AST (U/L)” value in [11] (setting [16]) was 28.11 U/L and 47.21 U/L and 27.58 U/L and 22.28 U/L. The figures for the half-life in [4] and in [5] were 2.6 h and 3.17 h, respectively.

Take `CC(C)c1ccc(OCC(=O)N(Cc2ccn3ncc(C(N)=O)c3c2)C(C)C)cc1` [CDD-3032, 5-((N-isopropyl-2-(4-isopropylphenoxy)acetamido)methyl)pyrazolo[1,5-a]pyridine-3-carboxamide]: the concentration for half-maximal inhibition (IC50) was determined as 6.1 nM on NTRK2 [1], 34 nM on NTRK1 and 13.7 nM at NTRK3. At NTRK2 [3], the “cell penetration and effect” value is “able to penetrate cell membranes to induce an effect”. Further, the half-life in [4] turned out to be 0.105 h; in data set [5], 0.472 h.

As for `CC(C)N(Cc1ccn2ncc(C(N)=O)c2c1)C(=S)Nc1ccc(OC(F)(F)F)cc1` [CDD-3119, 5-((1-isopropyl-3-(4-(trifluoromethoxy)phenyl)thioureido)methyl)pyrazolo[1,5-a]pyridine-3-carboxamide], the IC50 is 3.6 nM on NTRK2 [1], 3.8 nM on NTRK1 and 6.6 nM at NTRK3. In data set [10], the concentration at 24 h was determined as 140 ng/g. For the same molecule, the “number, volume and mass of lesions” value in the data set with endometriotic lesions was “reduction of lesions, volume of lesions, and mass of lesions”. Also, the endometriotic lesion growth result with endometriotic lesions is reported as “inhibiting endometriotic lesion growth”. Besides, in [11] (10 mg/kg, mice with endometriotic lesions), the “effect on liver and/or kidney weight and/or serum elevation of ALT and AST” value is “little to no effect”. The “ALT (Mean ± SD)” value in data set [11] is 21.3 ± 4.9. Moreover, the “AST (Mean ± SD)” value in [11] was found to be 53.2 ± 18.5. In addition, the “impact on liver and kidney weights” value in data set [11] (mice treated for 14 days) is on record as “no significant impact”. In addition, the half-life in data set [4] is 4.83 h; in data set [5] it was 1.6 h.

Consider `CN1CCN(c2ccc(C(=O)Nc3n[nH]c4ccc(Cc5cc(F)cc(F)c5)cc34)c(NC3CCOCC3)c2)CC1` [Entrectinib, N-(5-(3,5-difluorobenzyl)-1H-indazol-3-yl)-4-(4-methylpiperazin-1-yl)-2-((tetrahydro-2H-pyran-4-yl)amino)benzamide], for which the blood-brain barrier crossing result in data set [12] was “cross the blood-brain barrier”.

`CC(C)(CO)n1cc(C(=O)c2cncc(NC(=O)Cc3ccc(Cl)cn3)c2)c2cnc(N)nc21` [PF-06273340, N-[5-[[2-Amino-7-(2-hydroxy-1,1-dimethylethyl)-7H-pyrrolo[2,3-d]pyrimidin-5-yl]carbonyl]-3-pyridinyl]-5-chloro-2-pyridineacetamide, reference compound]: the concentration at 24 h in data set [10] turned out to be 80 ng/g. In the data set on endometriotic lesions, the “number, volume and mass of lesions” value is “reduction of lesions, volume of lesions, and mass of lesions”; the endometriotic lesion growth entry was “inhibiting endometriotic lesion growth”. In data set [11], the “ALT (Mean ± SD)” value is listed as 15.1 ± 1.6 and the “AST (Mean ± SD)” value came to 25.3 ± 7.1. Also, in data set [4], the half-life was 3.37 h. This molecule gave a half-life in data set [5] of 8.37 h.

With `FC(F)(F)c1ccc(CNc2ccc(Cc3c[nH]c4ncc(Cl)cc34)cn2)cn1` [Pexidartinib], the IC50 with FLT3-ITD is 9 nM.

In the case of `CNCC[C@@H](Oc1ccccc1C)c1ccccc1` [atomoxetine], the “Brain:Plasma (comparator antidepressant drug)” value in data set [13] was 20.

Regarding `O=C(Nc1cnn2ccc(N3CCC[C@@H]3c3cc(F)ccc3F)nc12)N1CC[C@H](O)C1` [larotrectinib], the blood-brain barrier crossing entry in data set [12] is given as “cross the blood-brain barrier”.
